The test system of one assay is AKT. As to the kind of experiment: Radiation-induced AKT activation. The assay is classed as cell-based.
The next assay concerns MET, PDGFR and FGFR RTKs. The assay is described as follows: Western blot of MET, PDGFR and FGFR phosphorylation and levels in glioma cells. Type of assay: cell-based. Here is the method: In this study, the D54, SKMG3, U251, T98G and 42-MG glioma cell lines were used. The source of D54, SKMG3 and U251 cells has been described previously (Contessa at al., Clin Cancer Res., 16:3205-14 (2010), Lopez et al., Int J Radiat Oncol Biol Phys., 69:214-20 (2007)). The 42-MG and T98G cells were provided by Todd Waldman (Georgetown University) and Dr. Ranjit Bindra (Yale University), respectively. The cells were cultured in DMEM/F12 (D54 and T98G), DMEM (42-MG and U251) or RPMI 1640 (SKMG3)+10% FBS supplemented with penicillin and streptomycin (Gibco, Life Technologies, Grand Island, N.Y., US) in a humidified incubator with 5% CO2, and they were kept in culture no more than 6 months after resuscitation from the original stocks. […] Mycoplasma cell culture contamination was routinely checked and ruled out using a biochemical test (MycoAlert Mycoplasma Detection Kit from Lonza, Rockland, Me. USA). Tunicamycin was purchased from Calbiochem/EMD-millipore (Burlington, Mass., USA). Cetuximab and Erlotinib were purchased at Selleck Chemicals LLC (Houston, Tex., USA). Luciferin was supplied by Promega (Madison, Wis. USA). For in vitro experiments, radiation (XRT) was administered at room temperature using a Precision X-ray 320-kV orthovoltage unit at a dose rate of 2 Gy/45 seconds (PXI X-Ray Systems) with 2 mm aluminum filter. For in vivo studies, radiation was administered at room temperature using a Precision X-ray 250-kV orthovoltage unit at a dose rate of 6.42 Gy/min (PXI X-Ray Systems) with 2 mm aluminum filter. Quality Assurance for both irradiators was performed monthly using a P.T.W. 0.3 cm^3 Ionization Chamber calibrated to NIST standards and quarterly dosimetry using thermoluminescent dosimeter (TLD)-based or ferrous sulfate-based dosimeters.
Background: Immunoblotting shows a protein as a band on a membrane.

Assay [1] has as its system D54, SKMG3, T98G or U251 cells. The assay is described as follows: Glioma cell proliferation (CellTiter 96), NGI-1 alone or with cytotoxic chemotherapy. The assay is classed as cell-based. Here is the method: Radiation (XRT) doses of either 0, 2, 4, or 6 Gy were delivered with a Precision X-ray 320-kV orthovoltage unit at a dose rate of 2 Gy/45 seconds (PXI X-Ray Systems). Twenty-four hours following XRT cells were washed, trypsinized, and re-plated in triplicate wells to determine clonogenic survival. […] Growth rates were determined by CellTiter 96 Non-Radioactive Cell Proliferation Assay (Promega; Madison, Wis., USA) according to the manufacturer's directions. For each experiment one thousand cells were seeded in triplicate wells in 96-wells plates. The following day, cell cultures were treated with NGI-1 (1 μM), Temozolomide (TMZ, 10 μM), Etoposide (VP-16, 0.1 μM) or combinations for 5 days. Absorbance at 540 nm was measured using the spectrophotometric reading (BioTek Synergy 2; Winooski, Vt. USA).

The subject of another assay is H3255. As to conditions: Lopez-Sambrooks et al., Nat Chem Biol. 2016; cited from earlier work.
The test system of a further assay is PC9-ERLucT cells. As to the kind of experiment: ER-LucT glycosylation reporter luciferase assay in vitro. Type of assay: cell-based. To be noted: after 24 h, equivalent concentrations of NGI-1 dissolved in DMSO or via NP. An excerpt: To test the hypothesis that NGI-1 could enhance TKI therapy in EGFR mutant and TKI resistant NSCLC, a NGI-1 nanoparticle (NGI-NP) formulation was developed by nanoprecipitation of a NGI-1 PEI complex. All nanoparticle preparations were confirmed by DLS and the average particle size was 120±10 nm. To assess the activity of the NGI-1 NPs a PC9 cell line with stable expression of the ER-LucT glycosylation reporter (Contessa at al., Clin Cancer Res., 16(12):3205-14 (2010)), a luciferase engineered to be expressed in the endoplasmic reticulum with N-linked glycosylation sites, was established. Under normal cell conditions glycosylation of the luciferase blocks activity and luminescence. However, under conditions of decreased glycosylation luciferase activity is restored with a measurable increase in luciferase activity. Equivalent concentrations of NGI-1, either dissolved in DMSO or via NP, activated luminescence˜6 fold after 24 h in these PC9-ERLucT cells in vitro (FIG. 13A).

The next assay concerns Calu-3. The assay is described as follows: Lung cancer cell line viability screen. Type of assay: cell-based. As to conditions: Homo sapiens; Calu-3, NSCLC, ErbB2 amplified; read-out: NGI-1 (IC50). Here is the method: (§1) NGI-1 activity was screened in 94 lung cancer cell lines at the Center for Molecular Therapeutics at the Massachusetts General Hospital Center for Cancer Research with previously described methods (Garnett et al., Nature, 483(7391):570-5 (2012)). Briefly, cells were treated in 384-well microplates using 9 serial NGI-1 dilutions, returned to an incubator for 96 hours, then stained with 55 μg/ml resazurin (Sigma) prepared in Glutathione-free media for 4 hours. Fluorescent signal intensity was quantified with a plate reader at excitation and emission wavelengths of 535/595 nm to determine viability. Viability ratio across the 9 doses were fitted to determine the half maximal inhibitory concentration (IC50).

For the next assay, the system named is NCI-H2110. The assay is described as follows: Lung cancer cell line viability screen. The assay is classed as cell-based. As to conditions: NCI-H2110, SCLC; read-out: NGI-1 (IC50). As to the method: as §1
The test system of the next assay is LC-1F. As to the kind of experiment: Lung cancer cell line viability screen. To be noted: NSCLC, read-out: NGI-1 (IC50). The assay is classed as cell-based. As to the method: as §1
The next assay relates to RERF-LC-Sq1. As to the kind of experiment: Lung cancer cell line viability screen. To be noted: RERF-LC-Sq1, NSCLC; read-out: NGI-1 (IC50). Type of assay: cell-based. Here is the method: as §1
A further assay concerns A-427. The assay is described as follows: Lung cancer cell line viability screen. Type of assay: cell-based. To be noted: Homo sapiens; A-427, NSCLC; read-out: NGI-1 (IC50). Here is the method:
as §1

For a further assay, the system named is IST-SL2. The assay is described as follows: Lung cancer cell line viability screen. The assay is classed as cell-based. As to conditions: IST-SL2, SCLC; 96 hours; read-out: NGI-1 (IC50). As to the method:
as §1

The subject of a further assay is EMC-BAC-1. The assay is described as follows: Lung cancer cell line viability screen. Type of assay: cell-based. To be noted: EMC-BAC-1, NSCLC, ErBB3 Y523C; read-out: NGI-1 (IC50). As to the method: as §1
For another assay, the system named is RERF-LC-MS. The assay is described as follows: Lung cancer cell line viability screen. The assay is classed as cell-based. To be noted: NSCLC, read-out: NGI-1 (IC50). Here is the method:
as §1

The next assay relates to BEN. The assay is described as follows: Lung cancer cell line viability screen. The assay is classed as cell-based. As to conditions: NSCLC, read-out: NGI-1 (IC50). As to the method: as §1

Structures are written as SMILES.

With `Cc1cnc(NC(=O)c2cc(S(=O)(=O)N(C)C)ccc2N2CCCC2)s1` [NGI-1, 5-(dimethylsulfamoyl)-N-(5-methyl-1,3-thiazol-2-yl)-2-(pyrrolidin-1-yl)benzamide], the “radiation-induced activation of AKT” value is given as “not in the CD8-EGFR expressing SKMG3 cells” with AKT (CD8-EGFR expressing SKMG3 cells) and “blocks” in the assay on AKT (parental SKMG3 cells). The AKT activation entry in the assay on AKT (T98G cells) is “does not block AKT activation”. In addition, the “phosphorylation of PDGFR” value with MET, PDGFR and FGFR RTKs (42-MG, SKMG3, and T98G cells) is “uniformly reduced”. Besides, in the assay with MET, PDGFR and FGFR RTKs (D54, SKMG3, U251, and T98G cells), the “phosphorylation of MET” value is listed as “uniformly reduced phosphorylation”. In addition, the FGFR1 levels entry with MET, PDGFR and FGFR RTKs (glioma cell lines) is on record as “increased”. Also, the FGFR1 receptor phosphorylation entry with MET, PDGFR and FGFR RTKs (glioma cell lines) is listed as “not accompanied by an increase in receptor phosphorylation”. Also, the “glioma cell line proliferation, dose response” value in assay [1] (D54, SKMG3, U251 and T98G, 5 days of drug exposure) is “sensitive”. Besides, the “proliferation, NGI-1 combined with TMZ or VP-16” value in assay [1] (D54 and SKMG3, NGI-1 1 μM with TMZ 10 μM or VP-16 0.1 μM, 5 days, not synergistic) is recorded as “further reduced glioma cell proliferation”. Further, the “enhancement of the anti-proliferative effects of TMZ or VP-16” value in [1] (T98G or U251 cells, NGI-1 1 μM, 5 days) is “did not enhance”. The H3255 proliferation entry in the assay with H3255 is “significantly inhibits”. For the same compound, the “activation of luminescence (luciferase activity)” value in the assay on PC9-ERLucT cells is recorded as roughly 6 fold. Besides, the half-inhibitory concentration (IC50) with Calu-3 turned out to be 8.71 µM; in the assay on NCI-H2110 it was 9.01 µM; in the assay on LC-1F, 7.94 µM; in the assay with RERF-LC-Sq1, 7.39 µM; in the assay with A-427, 4.92 µM; with IST-SL2 it was 2.63 µM. Besides, the IC50 in the assay on EMC-BAC-1 is 4.1 µM; in the assay on RERF-LC-MS it was 8.07 µM; in the assay with BEN, 9.72 µM.

One may read the IC50 as the concentration needed to halve the response being measured.

These data come from patent publication US10765638B2, “Particle formulation with polycation complex” (Yale University, priority 2017, dated 2020).
